Experimental data from patent publication US20050282743A1, “Molecular interactions in cells” (Arbor Vita Corporation, priority 2001, published 2005).
Ends that are not written are not given here. Peptide text beside a SMILES is read from it. * marks the point of attachment. Biotin = O=C1N[C@H]2[C@H](CS[C@H]2CCCCC(=O)*)N1

What was measured:
[1] = molecular target: T1, PDZ protein (GST-PDZ fusion) (Homo sapiens, UniProt Q8TDM6); assay: G' assay (10 uM PL peptide), results of TABLE 7 and TABLE 12; type: binding; details: PDZ DLG5, PDZ Domain 2
T1 construct: made in house; host or cells: E. coli (DH5alpha, BL21 or JM109)
In short: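 Biotin-PL peptide (N-term label), 10 uM vs GST-PDZ; protein 5 ug/ml by default. A450 nm binned: 1 = 0-1, 2 = 1-2, 3 = 2-3, 4 = 3-4, 5 = >4 on >2 repeats, 0 = no binding.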

TIP1 (PDZ Domain 1) = molecular target: T2, TIP1 (PDZ Domain 1) (Homo sapiens, UniProt O14907); assay: G' assay and Kd titration, TABLE 12; type: binding; details: A450 nm class of biotinylated PL peptide bound; 0 in conc columns = peptide 10 uM, protein 5 ug/ml
T2 construct: made in house; host or cells: E. coli (DH5alpha, BL21 or JM109)
Description: The third column labeled “Peptide Optimal Concentration” in the tables is a number reflective of the binding interaction between the PL protein and PDZ protein. […] The column labeled “Protein Optimal Concentration” refers to the protein concentration used to assay PL interaction (in ug/ml); a ‘0’ is indicative of 5 ug/ml protein concentration; any other value represents the concentration (in ug/ml) used to determine the dissociation constant for a given interaction.
Finally, the seventh column labeled “Classification” is another measure of the level of binding. In particular, it provides an absorbance value at 450 nm which indicates the amount of PL peptide bound to the PDZ protein. […]
For convenience, the assay conditions described in this section are referred to as the “G′ assay” and the “G″ assay,” with the specific conditions described in the preceding section on G assays being referred to as the “G^0 assay.” The “G′ assay” is identical to the “G^0 assay” except at step (2) the peptide concentration is 10 uM instead of 20 uM. […] Correspondingly, it slightly increases the certainty that detected interactions are of sufficient affinity and half-life to be of biological importance and useful therapeutic targets.

T2 sequence (O14907 14-116): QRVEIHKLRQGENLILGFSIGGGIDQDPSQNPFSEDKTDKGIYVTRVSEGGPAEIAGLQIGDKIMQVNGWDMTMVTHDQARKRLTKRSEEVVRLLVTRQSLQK
T1 sequence (Q8TDM6 whole entry, the tested form may be a part): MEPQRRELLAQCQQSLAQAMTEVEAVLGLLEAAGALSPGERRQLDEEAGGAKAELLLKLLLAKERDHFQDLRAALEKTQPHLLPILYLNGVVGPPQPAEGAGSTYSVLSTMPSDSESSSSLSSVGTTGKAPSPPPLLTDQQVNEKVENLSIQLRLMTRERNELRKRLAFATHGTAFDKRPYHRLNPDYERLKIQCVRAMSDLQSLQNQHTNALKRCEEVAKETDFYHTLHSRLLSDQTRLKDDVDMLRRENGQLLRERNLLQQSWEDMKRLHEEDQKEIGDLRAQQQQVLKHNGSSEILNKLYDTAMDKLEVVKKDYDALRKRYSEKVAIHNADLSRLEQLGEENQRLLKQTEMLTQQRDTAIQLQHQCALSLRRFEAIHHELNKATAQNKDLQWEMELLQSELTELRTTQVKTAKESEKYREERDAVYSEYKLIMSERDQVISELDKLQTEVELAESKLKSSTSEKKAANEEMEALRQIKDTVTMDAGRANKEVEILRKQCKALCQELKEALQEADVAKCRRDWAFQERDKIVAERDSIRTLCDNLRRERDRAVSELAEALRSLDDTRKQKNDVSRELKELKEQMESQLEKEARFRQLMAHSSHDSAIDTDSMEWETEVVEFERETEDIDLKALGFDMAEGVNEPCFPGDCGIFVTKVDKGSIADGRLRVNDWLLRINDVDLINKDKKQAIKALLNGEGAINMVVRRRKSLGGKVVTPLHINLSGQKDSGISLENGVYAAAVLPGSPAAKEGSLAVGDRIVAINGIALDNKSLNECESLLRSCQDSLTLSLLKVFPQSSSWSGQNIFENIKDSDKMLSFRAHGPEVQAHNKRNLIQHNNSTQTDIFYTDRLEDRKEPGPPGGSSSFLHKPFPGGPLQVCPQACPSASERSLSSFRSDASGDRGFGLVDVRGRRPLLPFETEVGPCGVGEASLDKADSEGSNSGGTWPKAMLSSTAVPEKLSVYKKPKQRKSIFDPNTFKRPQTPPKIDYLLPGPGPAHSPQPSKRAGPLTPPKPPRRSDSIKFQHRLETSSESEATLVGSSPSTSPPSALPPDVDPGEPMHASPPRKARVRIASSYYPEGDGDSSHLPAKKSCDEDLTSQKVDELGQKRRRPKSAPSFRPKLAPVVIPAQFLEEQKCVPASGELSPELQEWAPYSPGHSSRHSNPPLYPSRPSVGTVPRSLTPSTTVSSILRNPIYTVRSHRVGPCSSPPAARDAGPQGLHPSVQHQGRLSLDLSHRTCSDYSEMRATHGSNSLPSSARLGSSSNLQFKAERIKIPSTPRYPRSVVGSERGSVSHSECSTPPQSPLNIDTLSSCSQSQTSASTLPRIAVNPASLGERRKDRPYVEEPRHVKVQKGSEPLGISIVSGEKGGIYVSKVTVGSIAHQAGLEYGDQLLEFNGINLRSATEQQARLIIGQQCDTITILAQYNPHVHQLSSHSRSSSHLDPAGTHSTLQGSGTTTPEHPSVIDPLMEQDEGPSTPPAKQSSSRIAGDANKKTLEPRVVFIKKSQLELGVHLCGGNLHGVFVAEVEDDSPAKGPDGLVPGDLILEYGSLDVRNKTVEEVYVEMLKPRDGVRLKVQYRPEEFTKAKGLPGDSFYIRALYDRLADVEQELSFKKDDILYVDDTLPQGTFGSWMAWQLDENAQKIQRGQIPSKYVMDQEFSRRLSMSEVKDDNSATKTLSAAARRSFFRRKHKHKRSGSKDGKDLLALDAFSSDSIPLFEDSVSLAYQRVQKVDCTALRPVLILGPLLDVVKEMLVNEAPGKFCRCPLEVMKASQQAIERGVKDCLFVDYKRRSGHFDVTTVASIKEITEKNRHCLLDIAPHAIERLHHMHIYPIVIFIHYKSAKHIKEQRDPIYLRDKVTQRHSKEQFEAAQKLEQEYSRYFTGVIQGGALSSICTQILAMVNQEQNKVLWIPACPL

Compound | Classification [1] | Classification (TIP1 (PDZ Domain 1))
A2AA_HUMAN (modified) (Biotin-HDFRRAFKKILARGDRKRIV; not fully specified) | 1 (A450 nm 0-1) | –
CC[C@H](C)[C@H](NC(=O)[C@H](CCC(N)=O)NC(=O)CCCC[C@@H]1SC[C@@H]2NC(=O)N[C@@H]21)C(=O)N[C@@H](CO)C(=O)N1CCC[C@H]1C(=O)NCC(=O)NCC(=O)N[C@@H](CC(C)C)C(=O)N[C@@H](CCC(=O)O)C(=O)N1CCC[C@H]1C(=O)N1CCC[C@H]1C(=O)N[C@@H](CO)C(=O)N[C@@H](CCC(=O)O)C(=O)N[C@@H](CCCCN)C(=O)N[C@@H](Cc1c[nH]cn1)C(=O)N[C@@H](Cc1ccccc1)C(=O)N[C@@H](CCCNC(=N)N)C(=O)N[C@@H](CCC(=O)O)C(=O)N[C@H](C(=O)N[C@@H](CCC(=O)O)C(=O)N[C@H](C(=O)O)C(C)C)[C@@H](C)O [Tax] | – | 5 (A450 nm of 4 more than 2× repeated)
CC(C)C[C@H](NC(=O)[C@H](C)NC(=O)[C@@H](NC(=O)[C@@H](NC(=O)[C@H](Cc1c[nH]cn1)NC(=O)[C@H](CC(C)C)NC(=O)CNC(=O)[C@H](CCC(N)=O)NC(=O)CNC(=O)CNC(=O)[C@H](C)NC(=O)[C@H](C)NC(=O)[C@H](CCCNC(=N)N)NC(=O)[C@H](C)NC(=O)[C@H](CO)NC(=O)[C@H](CC(=O)O)NC(=O)[C@H](CC(=O)O)NC(=O)[C@H](Cc1c[nH]c2ccccc12)NC(=O)[C@H](C)NC(=O)CCCC[C@@H]1SC[C@@H]2NC(=O)N[C@@H]21)C(C)C)[C@@H](C)O)C(=O)O [LPAP] (Biotin-AWDDSARAAGGQGLHVTAL-OH; C-terminus assumed) | – | 5 (A450 nm of 4 more than 2× repeated)
